The target in data set [1] is Receptor-type tyrosine-protein kinase FLT3 (Homo sapiens, UniProt P36888). Description: Inhibition of FLT3 (unknown origin).
Data set [2] concerns the target Vascular endothelial growth factor receptor 2 (Homo sapiens, UniProt P35968). Kind of data set: Inhibition of KDR (unknown origin).
The target of data set [3] is Beta-adrenergic receptor kinase 1 (Homo sapiens, UniProt P25098). Description: Inhibition of ADRBK1 (unknown origin).
Data set [4] addresses Serine/threonine-protein kinase Chk1 (Homo sapiens, UniProt O14757). Description: Inhibition of CHEK1 (unknown origin).
Data set [5] deals with Ephrin type-A receptor 1 (Homo sapiens, UniProt P21709). Kind of data set: Inhibition of EPHA1 (unknown origin).
In data set [6] the target is Ephrin type-B receptor 3 (Homo sapiens, UniProt P54753). Description: Inhibition of EPHB3 (unknown origin).
Data set [7] addresses BDNF/NT-3 growth factors receptor (Homo sapiens, UniProt Q16620). Description: Inhibition of NTRK2 (unknown origin).
Data set [8] deals with Proto-oncogene tyrosine-protein kinase receptor Ret (Homo sapiens, UniProt P07949). Kind of data set: Inhibition of RET (unknown origin).
The nature of data set [9]: Clearance in female rat at 1.13 mg/kg, iv administered as single dose. It is filed as ADME, organism-based. To be noted: in vivo.
A short description of data set [10]: Clearance in dog at 1.00 mg/kg, iv administered as single dose. To be noted: in vivo. It is filed as ADME, organism-based, Canis lupus familiaris.
Data set [11] in a line: Clearance in monkey at 1.35 mg/kg, iv administered as single dose. The note with it: rhesus monkey, in vivo. It is filed as ADME, organism-based, Macaca mulatta.
In data set [12] the test system is Mus musculus. Kind of data set: Antialzheimer activity in 5XFAD mouse assessed as number of Iba positive cells per FOV in microglia at 1200 ppm administered as rodent chow for 3 days by DAPI staining based immunolabeling analysis (reference value: 119 to 154). It is filed as functional. To be noted: route po, time 3 day.
Data set [13] deals with Mus musculus. Description: Antialzheimer activity in 5XFAD mouse assessed as time spent in open arm at 1200 ppm administered as rodent chow for 10 to 24 weeks by Elevated plus maze test (reference value: 34.1 to 208.9 sec). It is filed as functional. To be noted: route po, time 10-24 weeks.
Data set [14] concerns the target T1, Macrophage colony-stimulating factor 1 receptor (Mus musculus) (UniProt P09581).
T1 sequence (whole entry): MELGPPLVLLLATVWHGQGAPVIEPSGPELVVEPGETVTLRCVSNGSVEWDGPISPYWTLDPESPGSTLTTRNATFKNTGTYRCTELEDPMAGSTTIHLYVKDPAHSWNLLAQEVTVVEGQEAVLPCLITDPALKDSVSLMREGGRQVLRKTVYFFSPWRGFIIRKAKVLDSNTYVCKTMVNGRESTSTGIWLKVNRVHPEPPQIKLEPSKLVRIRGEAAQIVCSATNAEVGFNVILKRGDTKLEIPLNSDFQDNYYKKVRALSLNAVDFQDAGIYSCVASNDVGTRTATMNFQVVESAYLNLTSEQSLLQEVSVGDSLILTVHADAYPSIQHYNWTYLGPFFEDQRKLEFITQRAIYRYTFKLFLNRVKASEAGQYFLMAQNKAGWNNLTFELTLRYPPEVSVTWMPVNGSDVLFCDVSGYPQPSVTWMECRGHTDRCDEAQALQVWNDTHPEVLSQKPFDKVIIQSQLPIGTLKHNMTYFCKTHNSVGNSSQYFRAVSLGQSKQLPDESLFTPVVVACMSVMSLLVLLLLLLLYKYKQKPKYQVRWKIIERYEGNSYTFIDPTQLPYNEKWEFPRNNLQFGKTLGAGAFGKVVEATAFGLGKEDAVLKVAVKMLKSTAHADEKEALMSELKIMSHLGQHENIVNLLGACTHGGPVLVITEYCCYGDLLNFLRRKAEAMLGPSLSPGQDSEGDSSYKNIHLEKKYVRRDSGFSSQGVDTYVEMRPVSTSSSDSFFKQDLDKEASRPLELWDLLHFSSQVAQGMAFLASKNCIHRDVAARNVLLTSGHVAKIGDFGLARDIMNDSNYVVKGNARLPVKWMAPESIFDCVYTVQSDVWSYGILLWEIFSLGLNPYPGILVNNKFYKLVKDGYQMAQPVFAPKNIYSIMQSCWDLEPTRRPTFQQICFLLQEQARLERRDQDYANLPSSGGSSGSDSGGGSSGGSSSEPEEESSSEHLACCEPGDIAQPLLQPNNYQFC
Description: In vivo inhibition of CSF1R in wildtype mouse assessed as microglial elimination in cortex at 1200 ppm administered as rodent chow for 10 weeks by […] based confocal microscopic analysis relative to control. Format: functional. Also noted: scale not given: the % may be the effect or the level left. To be noted: route po.

Data set [15] has as its target T1, Macrophage colony-stimulating factor 1 receptor (Mus musculus). Kind of data set: In vivo inhibition of CSF1R in wildtype mouse assessed as number of S100bteta positive cells per FOV in […] cortex at 1200 ppm administered as rodent chow for 10 to 24 weeks by immunolabelling based confocal microscopic analysis (reference value: 296 to 337). It is filed as functional. To be noted: route po, time 10-24 weeks.

A short description of data set [16]: Effect on Hexb gene expression in wild type mouse thalamus at 1200 ppm administered as rodent chow starting from 1.5 months and measured after 7 months by RNA-Seq analysis (reference value: 45.201 to 52.726 RPKM). To be noted: route po, time 5.5 months, 4015 h. Format: functional.
Data set [17] in a line: Effect on Siglech gene expression in 5XFAD mouse hippocampus at 1200 ppm administered as rodent chow starting from 1.5 months and measured after 7 months by RNA-Seq analysis (reference value: 5.386 to 6.928 RPKM). Format: functional. To be noted: route po, time 5.5 months, 4015 h.
A short description of data set [18]: Effect on Spi1 gene expression in wild type mouse cortex at 1200 ppm administered as rodent chow starting from 1.5 months and measured after 7 months by RNA-Seq analysis (reference value: 1.059 to 1.887 RPKM). It is filed as functional. The note with it: route po, time 5.5 months, 4015 h.
A short description of data set [19]: Effect on Cst7 gene expression in 5XFAD mouse thalamus at 1200 ppm administered as rodent chow starting from 1.5 months and measured after 7 months by RNA-Seq analysis (reference value: 9.686 to 22.113 RPKM). Format: functional. The note with it: route po, time 5.5 months, 4015 h.
Data set [20] is described as follows: Effect on Ctsz gene expression in wild type mouse cortex at 1200 ppm administered as rodent chow starting from 1.5 months and measured after 7 months by RNA-Seq analysis (reference value: 12.903 to 16.267 RPKM). Format: functional. To be noted: route po, time 5.5 months, 4015 h.
Data set [21] in a line: Effect on Itgax gene expression in 5XFAD mouse hippocampus at 1200 ppm administered as rodent chow starting from 1.5 months and measured after 7 months by RNA-Seq analysis (reference value: 2.202 to 4.490 RPKM). Format: functional. The note with it: route po, time 5.5 months, 4015 h.
The nature of data set [22]: Prevention of Nos1ap gene downregulation in 5XFAD mouse hippocampus assessed as percent change in Reads Per kilo base per Million mapped reads at 1200 ppm administered as rodent chow starting from 1.5 months and measured after 7 months by RNA-Seq analysis (reference value: 58.209 to 93.063 %). Format: functional. The note with it: route po, time 5.5 months, 4015 h.
The subject of data set [23] is Mus musculus. Description: Prevention of immune pathway related gene upregulation in 5XFAD mouse hippocampus assessed as percent change in Reads Per kilo base per Million mapped reads at 1200 ppm administered as rodent chow starting from 1.5 months and measured after 7 months by GO enrichment analysis. Format: functional, tissue-based. The note with it: route po, time 5.5 months.

The test system of data set [24] is Mus musculus. Kind of data set: Prevention of C1qa gene upregulation in 5XFAD mouse hippocampus at 1200 ppm administered as rodent chow starting from 1.5 months and measured after 7 months by Nanostring analysis. Format: functional, tissue-based. To be noted: route po, time 5.5 months.

Each structure is given as a SMILES string. Calls of active or inactive are those of the source. The calls are words filed in the database; no cut-off is given here.

By IC50 is commonly meant the concentration that gives 50% inhibition. For orientation: clearance means a measure of how efficiently the substance is removed, as volume per time.

Proto-oncogene tyrosine-protein kinase receptor Ret, sequence (P07949 whole entry): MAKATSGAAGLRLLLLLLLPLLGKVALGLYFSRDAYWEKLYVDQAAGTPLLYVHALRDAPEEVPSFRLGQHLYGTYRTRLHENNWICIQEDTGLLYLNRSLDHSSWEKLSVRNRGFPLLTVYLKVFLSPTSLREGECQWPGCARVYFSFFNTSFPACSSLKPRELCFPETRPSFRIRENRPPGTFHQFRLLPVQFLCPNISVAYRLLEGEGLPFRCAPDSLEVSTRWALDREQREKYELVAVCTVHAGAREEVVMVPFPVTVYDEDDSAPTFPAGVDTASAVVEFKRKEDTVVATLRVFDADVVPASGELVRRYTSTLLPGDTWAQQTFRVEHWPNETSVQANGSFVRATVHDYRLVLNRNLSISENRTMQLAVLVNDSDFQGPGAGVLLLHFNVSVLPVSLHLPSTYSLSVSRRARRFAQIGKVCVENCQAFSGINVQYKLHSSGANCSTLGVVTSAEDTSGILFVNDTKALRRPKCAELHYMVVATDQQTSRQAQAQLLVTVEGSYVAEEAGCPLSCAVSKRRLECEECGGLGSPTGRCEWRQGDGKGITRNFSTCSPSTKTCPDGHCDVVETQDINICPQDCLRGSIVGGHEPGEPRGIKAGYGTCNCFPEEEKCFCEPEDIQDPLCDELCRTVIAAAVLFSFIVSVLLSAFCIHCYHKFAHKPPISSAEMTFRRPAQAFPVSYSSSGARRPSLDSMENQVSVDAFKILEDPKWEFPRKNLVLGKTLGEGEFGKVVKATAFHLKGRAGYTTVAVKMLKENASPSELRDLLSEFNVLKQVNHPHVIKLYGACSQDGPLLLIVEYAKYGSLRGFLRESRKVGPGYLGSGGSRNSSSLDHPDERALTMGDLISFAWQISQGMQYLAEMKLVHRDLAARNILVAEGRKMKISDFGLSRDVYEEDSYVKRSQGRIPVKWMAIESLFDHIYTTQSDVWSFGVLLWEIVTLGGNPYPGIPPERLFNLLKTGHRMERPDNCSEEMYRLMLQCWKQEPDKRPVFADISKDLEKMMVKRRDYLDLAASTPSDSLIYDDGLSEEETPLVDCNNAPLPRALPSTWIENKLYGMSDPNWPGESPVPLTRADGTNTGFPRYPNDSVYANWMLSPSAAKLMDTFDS
Receptor-type tyrosine-protein kinase FLT3, sequence (P36888 whole entry): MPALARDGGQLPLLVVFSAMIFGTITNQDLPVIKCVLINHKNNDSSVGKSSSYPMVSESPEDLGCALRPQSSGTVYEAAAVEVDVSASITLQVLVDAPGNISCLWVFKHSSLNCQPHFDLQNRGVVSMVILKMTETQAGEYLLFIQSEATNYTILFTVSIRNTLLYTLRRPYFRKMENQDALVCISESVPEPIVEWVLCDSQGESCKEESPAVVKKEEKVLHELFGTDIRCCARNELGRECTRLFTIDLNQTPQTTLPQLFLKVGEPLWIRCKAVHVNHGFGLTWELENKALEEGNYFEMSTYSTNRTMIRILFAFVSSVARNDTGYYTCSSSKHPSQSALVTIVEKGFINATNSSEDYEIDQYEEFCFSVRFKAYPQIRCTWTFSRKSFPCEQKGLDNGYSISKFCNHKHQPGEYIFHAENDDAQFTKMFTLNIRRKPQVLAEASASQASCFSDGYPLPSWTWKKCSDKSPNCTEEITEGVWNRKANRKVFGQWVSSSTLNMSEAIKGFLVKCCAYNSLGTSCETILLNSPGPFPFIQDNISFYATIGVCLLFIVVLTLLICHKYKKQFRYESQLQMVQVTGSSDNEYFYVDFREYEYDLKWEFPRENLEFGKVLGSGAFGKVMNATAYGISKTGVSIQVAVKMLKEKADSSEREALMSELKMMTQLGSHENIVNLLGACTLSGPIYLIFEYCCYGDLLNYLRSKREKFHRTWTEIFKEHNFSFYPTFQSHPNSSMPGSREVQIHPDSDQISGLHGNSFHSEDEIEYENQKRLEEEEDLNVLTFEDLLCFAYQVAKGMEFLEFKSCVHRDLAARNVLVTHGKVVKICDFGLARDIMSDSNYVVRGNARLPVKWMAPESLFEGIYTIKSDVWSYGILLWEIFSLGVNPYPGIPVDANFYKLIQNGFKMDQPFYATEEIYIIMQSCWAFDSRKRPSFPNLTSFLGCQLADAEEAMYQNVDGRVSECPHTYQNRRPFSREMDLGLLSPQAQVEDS
Serine/threonine-protein kinase Chk1, sequence (O14757 whole entry): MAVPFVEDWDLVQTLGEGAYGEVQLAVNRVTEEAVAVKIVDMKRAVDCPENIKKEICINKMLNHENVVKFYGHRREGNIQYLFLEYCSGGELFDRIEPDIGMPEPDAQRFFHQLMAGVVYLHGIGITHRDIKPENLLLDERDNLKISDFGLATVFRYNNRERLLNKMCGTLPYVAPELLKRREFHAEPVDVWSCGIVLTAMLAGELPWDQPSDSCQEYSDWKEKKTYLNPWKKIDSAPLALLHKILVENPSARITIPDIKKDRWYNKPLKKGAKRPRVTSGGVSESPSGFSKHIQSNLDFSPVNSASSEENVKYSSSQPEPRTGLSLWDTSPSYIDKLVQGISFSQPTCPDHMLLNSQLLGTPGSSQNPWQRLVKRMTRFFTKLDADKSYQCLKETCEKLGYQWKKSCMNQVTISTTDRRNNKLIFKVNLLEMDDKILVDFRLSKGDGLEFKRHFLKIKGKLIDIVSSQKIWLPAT
Ephrin type-B receptor 3, sequence (P54753 whole entry): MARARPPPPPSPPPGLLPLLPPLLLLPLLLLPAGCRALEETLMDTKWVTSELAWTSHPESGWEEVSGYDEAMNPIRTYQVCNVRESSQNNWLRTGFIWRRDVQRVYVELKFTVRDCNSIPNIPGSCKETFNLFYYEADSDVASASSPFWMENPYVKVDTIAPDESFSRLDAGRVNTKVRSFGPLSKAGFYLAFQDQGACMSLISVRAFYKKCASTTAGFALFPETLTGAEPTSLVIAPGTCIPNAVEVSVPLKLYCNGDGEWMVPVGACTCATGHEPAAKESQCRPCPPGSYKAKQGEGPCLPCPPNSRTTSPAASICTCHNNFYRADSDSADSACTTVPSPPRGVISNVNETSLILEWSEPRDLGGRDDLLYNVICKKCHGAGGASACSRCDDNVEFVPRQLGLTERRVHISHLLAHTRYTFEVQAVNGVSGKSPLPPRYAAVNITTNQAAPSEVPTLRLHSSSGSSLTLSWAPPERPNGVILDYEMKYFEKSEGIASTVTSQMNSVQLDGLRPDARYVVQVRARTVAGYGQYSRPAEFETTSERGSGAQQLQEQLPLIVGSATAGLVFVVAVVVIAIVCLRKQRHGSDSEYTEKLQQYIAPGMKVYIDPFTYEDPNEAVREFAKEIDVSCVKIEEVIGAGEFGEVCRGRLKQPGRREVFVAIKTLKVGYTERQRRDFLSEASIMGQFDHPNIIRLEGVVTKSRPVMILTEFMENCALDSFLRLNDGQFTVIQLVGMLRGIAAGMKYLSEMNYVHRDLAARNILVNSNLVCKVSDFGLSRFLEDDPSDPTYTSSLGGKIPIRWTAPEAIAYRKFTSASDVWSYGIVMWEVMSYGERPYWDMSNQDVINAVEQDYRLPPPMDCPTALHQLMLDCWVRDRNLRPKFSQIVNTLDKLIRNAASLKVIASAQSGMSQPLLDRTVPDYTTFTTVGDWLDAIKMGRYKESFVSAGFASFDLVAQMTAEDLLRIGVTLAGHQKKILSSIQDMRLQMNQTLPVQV
Vascular endothelial growth factor receptor 2, sequence (P35968 whole entry): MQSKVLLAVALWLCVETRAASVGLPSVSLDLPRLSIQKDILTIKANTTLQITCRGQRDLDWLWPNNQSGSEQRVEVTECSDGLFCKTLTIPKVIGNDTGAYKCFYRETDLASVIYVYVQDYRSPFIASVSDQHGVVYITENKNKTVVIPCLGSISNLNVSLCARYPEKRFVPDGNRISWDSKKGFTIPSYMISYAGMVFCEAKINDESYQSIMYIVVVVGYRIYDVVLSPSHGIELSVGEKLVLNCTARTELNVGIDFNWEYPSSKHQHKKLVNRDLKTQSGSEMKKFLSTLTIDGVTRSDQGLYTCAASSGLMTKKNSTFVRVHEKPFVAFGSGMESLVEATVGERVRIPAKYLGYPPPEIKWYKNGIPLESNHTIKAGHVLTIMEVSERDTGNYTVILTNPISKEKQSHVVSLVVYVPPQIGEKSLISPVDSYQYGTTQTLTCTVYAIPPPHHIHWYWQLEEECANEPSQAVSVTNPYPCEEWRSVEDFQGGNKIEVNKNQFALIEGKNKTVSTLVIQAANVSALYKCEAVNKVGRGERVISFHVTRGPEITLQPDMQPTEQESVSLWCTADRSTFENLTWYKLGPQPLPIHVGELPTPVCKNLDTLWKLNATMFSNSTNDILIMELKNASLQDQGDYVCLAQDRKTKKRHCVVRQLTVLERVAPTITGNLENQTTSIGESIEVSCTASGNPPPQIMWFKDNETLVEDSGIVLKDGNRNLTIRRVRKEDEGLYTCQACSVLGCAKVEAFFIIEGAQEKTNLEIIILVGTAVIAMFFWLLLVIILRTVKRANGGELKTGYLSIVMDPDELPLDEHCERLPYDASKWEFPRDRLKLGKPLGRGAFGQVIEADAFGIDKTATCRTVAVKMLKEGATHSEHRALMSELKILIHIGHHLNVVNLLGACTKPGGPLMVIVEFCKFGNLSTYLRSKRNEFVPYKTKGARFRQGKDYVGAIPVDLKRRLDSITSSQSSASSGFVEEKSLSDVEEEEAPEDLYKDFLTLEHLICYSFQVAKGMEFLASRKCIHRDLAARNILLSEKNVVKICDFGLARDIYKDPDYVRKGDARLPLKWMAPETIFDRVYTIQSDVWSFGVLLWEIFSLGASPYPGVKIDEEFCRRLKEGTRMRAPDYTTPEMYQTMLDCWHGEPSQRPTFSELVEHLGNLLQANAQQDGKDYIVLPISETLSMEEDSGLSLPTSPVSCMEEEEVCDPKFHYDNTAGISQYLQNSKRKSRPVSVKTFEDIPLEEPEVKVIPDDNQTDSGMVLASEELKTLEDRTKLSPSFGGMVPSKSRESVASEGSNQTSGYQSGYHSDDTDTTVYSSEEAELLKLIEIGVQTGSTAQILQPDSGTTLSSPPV

With `COc1ncc(F)cc1CNc1ccc(Cc2c[nH]c3ncc(C)cc23)c(F)n1` [PLX-5622], the IC50 was 390 nM in [1]; 1100 nM in data set [2]; above 1000 nM in [3]; above 1000 nM in data set [4]; above 1000 nM in [5]; above 1000 nM in data set [6]. In addition, the IC50 in data set [7] and in data set [8] was above 1000 nM throughout. Besides, the clearance in data set [9] stood at 3.7 mL/min/kg; in data set [10], 3 mL/min/kg; in data set [11], 11 mL/min/kg. For the same molecule, the Activity was 1 in [12]; above 99% in [14]; 269 in [15]; 10.895 RPKM in [16]; 0.195 RPKM in data set [17]; 0 RPKM in data set [18]. In addition, the Activity in data set [19] turned out to be 0.096 RPKM; in [20], 11.205 RPKM; in data set [21], 0.155 RPKM; in [22], 82.746%. For the same molecule, in data set [13], the Time is on record as 157.6 s. The result in [23] and in [24] was Active.

For the origin of these results see ChEMBL document CHEMBL5649170, “Sustained microglial depletion with CSF1R inhibitor impairs parenchymal plaque development in an Alzheimer's disease model” (Nat Commun, 2019).
